The values that follow come from ChEMBL document CHEMBL1201862, “PubChem BioAssay data set” (2004).

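How tested: cells in 96-well plates exposed to compound for 48 hours at five concentrations. GI50 marks 50% less growth.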 Active and inactive are the calls of the source. Cut-off read from the data, not from the text of the source: active = GI50 up to about 1.1 µM and inactive = higher. Bounds are passed on as bounds.

Some test systems named below: EKVX; HOP-92; MDA-MB-435; MOLT-4; NCI-H226; NCI-H460; OVCAR-3; OVCAR-4; PC-3; SF-268; SK-MEL-5; SK-OV-3; SNB-75; SR; SW-620; T47D; TK-10; HL-60; SK-MEL-2.
Test in all cases: NCI-60 cell line screen, 48 h

As for `COc1ccc(C(=O)/C=C/c2ccc(OCC#N)cc2)cc1`, the GI50 with EKVX was 74.5 µM (inactive); with HOP-92, 29 µM (inactive); in the test on MDA-MB-435, 24.7 µM (inactive); in the test with MOLT-4, 23.3 µM (inactive); in the test on NCI-H226, 24.7 µM (inactive); in the test with NCI-H460 it was 27.3 µM (inactive). Moreover, the GI50 in the test with OVCAR-3 is 30.8 µM (inactive); in the test with OVCAR-4 it was 32.7 µM (inactive); in the test with PC-3, 36.6 µM (inactive); in the test with SF-268, 34.1 µM (inactive); in the test on SK-MEL-5, 15.1 µM (inactive); in the test with SK-OV-3, 43.3 µM (inactive). The GI50 with SNB-75 is 77.1 µM (inactive); with SR it was 22.7 µM (inactive); in the test with SW-620 it was 17.3 µM (inactive); with T47D, 14.9 µM (inactive); in the test with TK-10 it was 38.3 µM (inactive).
As to `Clc1ccccc1-c1nnc2c(-c3ccccc3)nc3ccccc3n12`, the GI50 was > 100 µM (inactive) in the test on EKVX; 54.5 µM (inactive) in the test with HL-60; > 100 µM (inactive) in the test with HOP-92; 52.7 µM (inactive) with MDA-MB-435; 42.6 µM (inactive) in the test with MOLT-4; > 100 µM (inactive) in the test on NCI-H226. Further, the GI50 in the test with NCI-H460, with OVCAR-3, with OVCAR-4, in the test on PC-3, in the test on SF-268 and with SK-MEL-2 was > 100 µM (inactive) each time. The GI50 with SK-MEL-5 is > 100 µM (inactive); with SK-OV-3, > 100 µM (inactive); in the test with SR, 45.2 µM (inactive); with SW-620, > 100 µM (inactive); in the test with T47D it was 5.93 µM (inactive); with TK-10, > 100 µM (inactive).
`CCC(C)C(C(=O)N/N=C1/SCC(=O)N1c1ccccc1)C(=O)N/N=C1/SCC(=O)N1c1ccccc1` (stereo not given): the GI50 was > 100 µM (inactive) in the test with EKVX; > 100 µM (inactive) in the test with HL-60; 19 µM (inactive) with HOP-92; 17.9 µM (inactive) with MDA-MB-435; 36 µM (inactive) with MOLT-4; > 100 µM (inactive) in the test on NCI-H460. The GI50 in the test with OVCAR-3 was 28.6 µM (inactive); in the test on OVCAR-4 it was 16.4 µM (inactive); in the test on PC-3, > 100 µM (inactive); in the test with SF-268, 44.9 µM (inactive); in the test on SK-MEL-2, 33.7 µM (inactive); with SK-MEL-5, 22 µM (inactive). For the same compound, the GI50 with SK-OV-3 was 22.2 µM (inactive); in the test with SNB-75, 44.9 µM (inactive); in the test with SR, 40.6 µM (inactive); in the test on SW-620, 41.9 µM (inactive); in the test on T47D, > 100 µM (inactive); in the test with TK-10, > 100 µM (inactive).
Take `CC(=O)OC1CN2CCC1CC2` (stereo not given) [ACECLIDINE]: the GI50 in the test on EKVX, in the test with HL-60, with HOP-92, in the test on MDA-MB-435, in the test with MOLT-4 and with NCI-H226 was > 100 µM (inactive) each time. The GI50 with NCI-H460, in the test on OVCAR-3, in the test on OVCAR-4, with PC-3, with SF-268 and in the test on SK-MEL-5 was > 100 µM (inactive) throughout. The GI50 in the test on SK-OV-3, in the test with SR, in the test with SW-620, with T47D and with TK-10 was > 100 µM (inactive) in each case.
As for `Cc1cc(S(=O)(=O)N/C(=C(\C#N)C(=O)c2ccc(Cl)cc2)[n+]2ccc(N(C)C)cc2)c([S-])cc1Cl`, the GI50 is > 100 µM (inactive) in the test on HL-60; < 0.01 µM (active) in the test on HOP-92; > 100 µM (inactive) with MDA-MB-435; > 100 µM (inactive) with MOLT-4; > 100 µM (inactive) in the test on NCI-H226; 42.6 µM (inactive) with NCI-H460. For the same compound, the GI50 with OVCAR-3 was 45.1 µM (inactive); in the test on OVCAR-4, 40.9 µM (inactive); with PC-3 it was 36.6 µM (inactive); with SF-268, 76.6 µM (inactive); in the test on SK-MEL-2, 4.84 µM (inactive); with SK-MEL-5, > 100 µM (inactive). For the same compound, the GI50 in the test on SK-OV-3 was 30.5 µM (inactive); with SR, 41.3 µM (inactive); in the test on T47D, > 100 µM (inactive); with TK-10, 43.2 µM (inactive).
As for `O=C(Nc1nncs1)NS(=O)(=O)n1c(=S)sc2ccccc21`, the GI50 is 72.6 µM (inactive) with EKVX; 51.9 µM (inactive) in the test on HL-60; > 100 µM (inactive) with HOP-92; > 100 µM (inactive) in the test on MDA-MB-435; 42.4 µM (inactive) with MOLT-4; > 100 µM (inactive) in the test on NCI-H460. Besides, the GI50 in the test with OVCAR-3, in the test on OVCAR-4, in the test with PC-3, in the test with SF-268, in the test on SK-MEL-2 and with SK-MEL-5 was > 100 µM (inactive) in each case. In addition, the GI50 in the test with SK-OV-3 is > 100 µM (inactive); in the test with SNB-75, > 100 µM (inactive); in the test on SR, 36.4 µM (inactive); in the test on SW-620 it was > 100 µM (inactive); with T47D, 88.9 µM (inactive); in the test on TK-10 it was > 100 µM (inactive).
Turning to `CC(C)CC1c2[nH]c3ccccc3c2C[C@H]2C(=O)NC(CCCCNC(=O)OC(C)(C)C)C(=O)N12` (stereo not given in full), the GI50 is 51.9 µM (inactive) in the test on EKVX; 21.7 µM (inactive) in the test on HL-60; 31 µM (inactive) with HOP-92; 33 µM (inactive) in the test with MDA-MB-435; 11.8 µM (inactive) with MOLT-4; 55.3 µM (inactive) in the test with NCI-H226. Besides, the GI50 in the test with OVCAR-3 is 2.36 µM (inactive); with OVCAR-4, 37.7 µM (inactive); in the test on PC-3, 17.9 µM (inactive); with SF-268, 21.4 µM (inactive); with SK-MEL-2, 21.6 µM (inactive); in the test on SK-MEL-5 it was 33.2 µM (inactive). Also, the GI50 in the test on SR was 11.9 µM (inactive); with SW-620, 41 µM (inactive); in the test on T47D, 0.449 µM (active); in the test with TK-10 it was 31.3 µM (inactive).
As for `CCOn1c(C2(CC3CCN(C(=O)c4ccccc4)CC3)OCCO2)cc2ccccc21`, the GI50 in the test with EKVX is 20.8 µM (inactive); in the test with HOP-92 it was 10.9 µM (inactive); in the test on MDA-MB-435, 14.3 µM (inactive); with MOLT-4 it was 12.8 µM (inactive); with NCI-H226, 0.084 µM (active); with NCI-H460, 14.1 µM (inactive). Also, the GI50 is 16.4 µM (inactive) in the test with OVCAR-3; 15.2 µM (inactive) in the test with OVCAR-4; 12.6 µM (inactive) in the test with PC-3; 19.3 µM (inactive) in the test with SF-268; 16.8 µM (inactive) in the test on SK-MEL-2; 11.9 µM (inactive) in the test with SK-MEL-5. Besides, the GI50 with SK-OV-3 was 19.3 µM (inactive); in the test on SNB-75, 16.5 µM (inactive); in the test on SR, 6.27 µM (inactive); in the test on SW-620, 15.8 µM (inactive); in the test on T47D it was 18.9 µM (inactive); in the test on TK-10 it was 12.2 µM (inactive).
In the case of `CC(=O)N1N=C(c2c(O)ccc3ccccc23)CC1C(=O)c1ccco1` (stereo not given), the GI50 in the test on HOP-92 is 52.7 µM (inactive); in the test with MDA-MB-435, 28.5 µM (inactive); in the test on MOLT-4 it was 13.2 µM (inactive); with NCI-H226, 77.1 µM (inactive); in the test on NCI-H460 it was 34.5 µM (inactive); in the test with OVCAR-3 it was 17.7 µM (inactive). Moreover, the GI50 is 36 µM (inactive) with OVCAR-4; 23 µM (inactive) with PC-3; 31.1 µM (inactive) in the test with SF-268; 16.6 µM (inactive) with SK-MEL-2; 22.8 µM (inactive) in the test with SK-MEL-5; 48.6 µM (inactive) in the test with SK-OV-3. For the same compound, the GI50 in the test on SNB-75 was 17.9 µM (inactive); with SR, 13.6 µM (inactive); with SW-620, 33.7 µM (inactive); in the test on T47D it was 39.8 µM (inactive); in the test with TK-10, 60.3 µM (inactive).
For `Cc1c(Cl)c(=O)oc2cc(OCC(O)COC(C)C)ccc12` (stereo not given), the GI50 with EKVX was 37.1 µM (inactive); in the test with HL-60, 22.1 µM (inactive); in the test with HOP-92, 35 µM (inactive); in the test with MDA-MB-435 it was 60.3 µM (inactive); in the test with MOLT-4 it was 27.5 µM (inactive); with NCI-H460 it was 36.1 µM (inactive). Besides, the GI50 in the test with OVCAR-3 was 97.5 µM (inactive); in the test on OVCAR-4, 38.9 µM (inactive); in the test on PC-3, 43.5 µM (inactive); with SF-268, 97.1 µM (inactive); in the test with SK-MEL-2, 30.3 µM (inactive); with SK-MEL-5, 19.8 µM (inactive). Also, the GI50 in the test on SK-OV-3 was > 100 µM (inactive); in the test on SR, 31.9 µM (inactive); in the test on SW-620 it was 34.4 µM (inactive); in the test with T47D, 69.7 µM (inactive); in the test on TK-10, 35.2 µM (inactive).
Consider `[N-]=[N+]=NC1=C(N=[N+]=[N-])c2cccc3cccc(c23)C1=O`, for which the GI50 in the test on EKVX was > 100 µM (inactive); in the test on HOP-92, > 100 µM (inactive); in the test on MDA-MB-435 it was > 100 µM (inactive); in the test with MOLT-4 it was 39.8 µM (inactive); in the test on NCI-H226 it was > 100 µM (inactive); in the test on NCI-H460 it was 58.9 µM (inactive). Also, the GI50 with OVCAR-3, in the test with OVCAR-4, in the test with PC-3, with SF-268, in the test on SK-MEL-2 and in the test on SK-MEL-5 was > 100 µM (inactive) throughout. In addition, the GI50 in the test on SK-OV-3 was > 100 µM (inactive); with SNB-75, > 100 µM (inactive); in the test on SR, 88.3 µM (inactive); in the test with SW-620, 57.7 µM (inactive); in the test on T47D it was > 100 µM (inactive); in the test with TK-10, > 100 µM (inactive).
